The text below walks through data of patent publication US20020019344A1, “Methods of preventing allograft rejection” (priority 2000, published 2002).

Read-outs that look alike come from different tables or passages of the source.

For orientation: inhibition means the drop in the measured response relative to a control, in per cent.

The subject of one assay is monocyte/macrophages. Conditions: Thieringer et al.; cited from earlier work.
In assay [1] the test system is IL-2 secretion in human T lymphocytes. Briefly: Inhibition of PHA/PMA-induced IL-2 secretion in human T lymphocytes. Format: cell-based. Conditions: for activation of IL-2 production: 5 micromolar, preincubation 12 hours prior to activator. The method, then:
The following test can be used to detect whether an insulin sensitizing agent is also able to inhibit IL-2 production. Isolated human T lymphocytes or a mammalian lymphocyte cell line which expresses PPARgamma is stimulated with one or a combination of PHA/PMA, TNF-alpha, interferon-gamma or some other factor that activates induction of IL-2 gene expression. Production of IL-2 is determined by measuring the concentration of IL-2 in the supernatant from cells using Endogen kits (Wolbum), as described by Yang et al.

The test system of the next assay is NF-kappaB. Briefly: Inhibition of NF-kappaB activation, electrophoretic mobility shift assay. Format: cell-based, human. Conditions: 5 micromolar; preincubation 2 hours prior to activator. On the procedure: The following test can be used to generically identify compounds of use in this invention based upon their ability to act as an agonist of PPAR. […] The rexinoid, LG100754 is a selective RXR/PPARgamma agonists. These compounds are tested for the ability to inhibit activity of NF-kappaB. Isolated human T lymphocytes or a mammalian cell line such as a Jurkat T cell line which expresses PPARgamma is stimulated with a concentration of one or a combination of: phytohemagglutinin/phorbol 12-myristate 13-acetate (PHA/PMA), TNF-alpha, interferon-gamma or some other factor that activates NF-kappaB. Activation of NF-kappaB is determined by electrophoretic mobility shift assay similar to that described by Rossi et al.

The next assay relates to NFAT. The assay is described as follows: Inhibition of NFAT activation, electrophoretic mobility shift assay. The format is cell-based, human. Conditions: 5 micromolar; preincubation 2 hours prior to activator. The method, then:
Isolated human T lymphocytes or a mammalian cell line such as a Jurkat T cell line which expresses PPARgamma is stimulated with a concentration of one or a combination of PHA/PMA, TNF-alpha, interferon-gamma or some other factor that activates NFAT. Transcriptional activation of NFAT is determined by electrophoretic mobility shift assay similar to that described by Yang et al.
A general note: A gel shift assay detects complexes by their altered migration in electrophoresis.

Setting [2] is: 10 uM, preincubated with drug for 24 hr, +PHA/PMA.

For the compound `Cc1oc(-c2ccccc2)nc1C(O)COc1ccc(CC2SC(=O)NC2=O)cc1` (centres unmarked) [AD-5075], in the assay on monocyte/macrophages, the “effect on TNF-alpha and lipopolysaccharide production” value is recorded as “no effect”.

For `CN(CCOc1ccc(CC2SC(=O)NC2=O)cc1)C(=O)CCCCC1CCSS1` (centres unmarked) [BP1-003], in assay [1] (setting [2]), the IL-2 released is 37 ± 7 pg/ml supernatant and the “Percent Inhibition” value is given as 92%.

For `CCCOc1cc2c(cc1\C(C)=C/C=C/C(C)=C/C(=O)O)C(C)(C)CCC2(C)C` [LG100754], in assay [1], the “activation of IL-2 production” value was “inhibits the activation of IL-2 production”. Moreover, the “activation of NF-kappaB” value in the assay on NF-kappaB was “inhibits the activation of NF-kappaB”. Besides, the “activation of NFAT” value in the assay on NFAT is “inhibits the activation of NFAT”.

In the case of `CCCCC[C@H](O)/C=C/[C@H]1C(=O)C=C[C@@H]1C/C=C\CCCC(=O)O` [prostaglandin J2], the “activation of IL-2 production” value in assay [1] is “inhibits the activation of IL-2 production”. In addition, the “activation of NF-kappaB” value in the assay with NF-kappaB is listed as “inhibits the activation of NF-kappaB”. Besides, the “activation of NFAT” value with NFAT was “inhibits the activation of NFAT”.

Consider `CN(CCOc1ccc(CC2SC(=O)NC2=O)cc1)c1ccccn1` (centres unmarked) [rosiglitazone], for which the IL-2 released in assay [1] (0.1 uM, preincubated with drug for 12 hr, +PHA/PMA) is listed as 481 ± 11 c.p.m; in assay [1] (1.0 uM, preincubated with drug for 12 hr, +PHA/PMA), 406 ± 12 c.p.m; in assay [1] (10 uM, preincubated with drug for 12 hr, +PHA/PMA) it was 323 ± 26 c.p.m; in assay [1] (setting [2]), 112 ± 7 pg/ml supernatant. Also, in assay [1] (Homo sapiens, T-lymphocyte, 0.1 uM, preincubated with drug for 12 hr, +PHA/PMA, read-out: Percent Inhibition), the inhibition at 0.1 µM was found to be 12%. Also, in assay [1] (Homo sapiens, T-lymphocyte, 1.0 uM, preincubated with drug for 12 hr, +PHA/PMA, read-out: Percent Inhibition), the inhibition at 1 µM was found to be 25%. Besides, the inhibition at 10 µM was found to be 41% in assay [1] (Homo sapiens, T-lymphocyte, 10 uM, preincubated with drug for 12 hr, +PHA/PMA, read-out: Percent Inhibition) and 75% in assay [1] (Homo sapiens, T-lymphocyte, 10 uM, preincubated with drug for 24 hr, +PHA/PMA, read-out: Percent Inhibition).
